Legend:
Type in all cases: cell-based
T47D = experiment: Cell viability assay (CellTiter-Blue/CellTiter-Glow); conditions: Homo sapiens; breast carcinoma cell line T47D; absolute IC50; 72 h
Method in brief: (§1)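 72 h viability assay in RPMI 1640 or DMEM plus 10% FCS; seeding density set by growth rate (4,000-20,000 cells/well). CellTiter-Blue or CellTiter-Glo endpoint, absolute IC50 at T/C=50%.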

SH-SY-5Y = experiment: as above; conditions: Homo sapiens, SH-SY5Y; brain carcinoma cell line SH-SY-5Y; absolute IC50; 72 h
Method in brief: as §1

U-118 = experiment: as above; conditions: brain carcinoma cell line U-118; absolute IC50; 72 h
Method in brief: as §1

U-251 = experiment: as above; conditions: Homo sapiens; brain carcinoma cell line U-251; absolute IC50; 72 h
Method in brief: as §1

SK-N-AS = experiment: as above; conditions: Homo sapiens; brain carcinoma cell line SK-N-AS; absolute IC50; 72 h
Method in brief: as §1

MDA-MB-436 = experiment: as above; conditions: Homo sapiens; breast carcinoma cell line MDA-MB-436; absolute IC50; 72 h
Method in brief: as §1

BT-474 = experiment: as above; conditions: Homo sapiens; breast carcinoma cell line BT-474; absolute IC50; 72 h
Method in brief: as §1

ZR-75-1 = experiment: as above; conditions: Homo sapiens; breast carcinoma cell line ZR-75-1; absolute IC50; 72 h
Method in brief: as §1

CHP-134 = experiment: as above; conditions: Homo sapiens; brain carcinoma cell line CHP-134; absolute IC50; 72 h
Method in brief: as §1

MDA-MB-231 = experiment: as above; conditions: Homo sapiens; breast carcinoma cell line MDA-MB-231; absolute IC50; 72 h
Method in brief: as §1

Panc-1 = experiment: as above; conditions: Homo sapiens; pancreatic carcinoma cell line Panc-1; absolute IC50; 72 h
Method in brief: as §1

parental H69 cells = experiment: as above; conditions: Homo sapiens, NCI-H69; SCLC parental H69 cells
Method in brief: as §1

OVXF 899 = experiment: as above; conditions: ovarian carcinoma cell line OVXF 899; absolute IC50; 72 h
Method in brief: as §1

[1] = test system: small cell lung carcinoma PDX SC6; experiment: PDX-derived cell culture cytotoxicity (CellTiter-Glo); conditions: 120 h; small cell lung carcinoma PDX SC6 (FIG. 13); 5 days
Method: (§2) PDX-derived cell cultures were obtained from tumors explanted from mice and isolated by mechanical and enzymatic dissociation. […] Cells were harvested and seeded in 96-wells plates at a density of 1.25 to 5×10^3 cells/well for cytotoxicity assays. Cells were incubated 48 h at 37° C. prior to addition of test molecules and vehicle (DMSO, 0.1%) at desired final concentrations. Cell viability was assessed before drugs' addition (To) and 5 days after test molecules addition by measuring ATP cell content using CellTiter-Glo® Luminescent Cell Viability Assay (Promega) according to the manufacturer's instructions. Luciferase activity was measured on a luminometer (PerkinElmer® EnVision™). Each concentration of compounds was tested in triplicate.
(§3) Viability was calculated as a percentage of ATP value compared to vehicle treated controls.
(§4) For PDX primary cell cultures, the tumour tissue was washed with PBS containing antibiotic-antimycotic and non-tumour tissue and necrotic tumour tissues were separated. The tumour tissue was transferred to a new dish and cut into 1-2 mm^3 fragments, resuspended in RPMI-1640 medium and centrifuged at 1,200 rpm for 6 min at room temperature. The pelleted material was resuspended with 15 mL of Tumour Cell Digestion Solution and incubated at 37° C. for 1 hour with agitation. Following further addition of media, centrifugation and passage through a […] cell strainer, the homogenous cell mixture was layered onto 15 mL of Ficoll-Paque PLUS in a 50 mL conical tube and centrifuged for 15 min at 1,600 rpm. The interface cells were collected, washed with media, separated by centrifugation at 1,200 rpm. The cell pellet was resuspended in serum free media supplemented with growth factors. 10,000 cells/wells were plated in a 96 well plate and incubated at 37° C., 5% CO2, 95% air and 100% relative humidity overnight. The cytotoxicity assay was conducted as above. IC50 values represent absolute IC50.

[2] = test system: brain carcinoma PDX GBM14-CHA; experiment: as above; conditions: 120 h; PDX brain carcinoma GBM14-CHA (FIG. 3); 5 days
Method: as §2, §3, §4

Q: Which results are given for `O=c1cc(-c2ccc(CCCC[P+](c3ccccc3)(c3ccccc3)c3ccccc3)cc2)oc2c3c(ccc12)OCO3.[Br-]` [SND123, 4-[4-(6-oxo-[1,3]dioxolo[4,5-h]chromen-8-yl)phenyl]butyl-triphenylphosphonium bromide]?
A: IC50 (T47D): 1.7 µM; IC50 (SH-SY-5Y): 4.9 µM; IC50 (U-118): 8.3 µM; IC50 (U-251): 1.87 µM; IC50 (SK-N-AS): 3.5 µM; IC50 (MDA-MB-436): 2.3 µM; IC50 (BT-474): 1.6 µM; IC50 (ZR-75-1): 2.5 µM; IC50 (CHP-134): 1.8 µM; IC50 (MDA-MB-231): 2 µM; IC50 (Panc-1): 2.32 µM

Q: With `CCNC(=O)Oc1ccc2c(=O)cc(-c3ccc(CCCC[P+](c4ccccc4)(c4ccccc4)c4ccccc4)cc3)oc2c1O.[Br-]` [SND126A, 4-[4-[7-(Ethylcarbamoyloxy)-8-hydroxy-4-oxo-chromen-2-yl]phenyl]butyltriphenylphosphonium bromide] as the molecule, how does the IC50 (parental H69 cells) read?
A: 3.63 µM

Q: What about the IC50 (OVXF 899) of the same molecule?
A: 17.6 µM

Q: Which results are given for `COc1c(O)ccc2c(=O)cc(-c3ccc(CCCC[P+](c4ccccc4)(c4ccccc4)c4ccccc4)cc3)oc12.[Br-]` [SND140, (4-(4-(7-hydroxy-8-methoxy-4-oxo-4H-chromen-2-yl)phenyl)butyl)triphenylphosphonium bromide]?
A: IC50 [1]: 7.02 µM; IC50 [2]: 6.47 µM
